Assay results reported in ChEMBL document CHEMBL1138737, “High-resolution structures of human aldose reductase holoenzyme in complex with stereoisomers of the potent inhibitor Fidarestat: stereospecific interaction between the enzyme and a cyclic imide type inhibitor” (J Med Chem, 2004).

Target: Aldo-keto reductase family 1 member B1 (Homo sapiens, UniProt P15121)
Test: Binding affinity for human Aldose reductase 2 expressed in Escherichia coli

IC50 [µM]	SMILES
11	NC(=O)[C@@H]1C[C@@]2(NC(=O)NC2=O)c2cc(F)ccc2O1 [(S,R)-FIDARESTAT]
40	NC(=O)[C@H]1C[C@@]2(NC(=O)NC2=O)c2cc(F)ccc2O1 (mixture of isomers)
0.57	NC(=O)[C@H]1C[C@]2(NC(=O)NC2=O)c2cc(F)ccc2O1 [(R,S)-FIDARESTAT]
0.03	NC(=O)[C@@H]1C[C@]2(NC(=O)NC2=O)c2cc(F)ccc2O1 [FIDARESTAT]
